# Literature values, collected in patent US12059506B2, “Coated implantable device” (NOBIL BIO RICERCHE S.R.L., priority 2017, dated 2024).
# Details: aqueous phase
smiles,measurement,value
C[C@@H]1O[C@@H](Oc2c(-c3ccc(O)c(O)c3)oc3cc(O)cc(O)c3c2=O)[C@H](O)[C@H](O)[C@H]1O [quercitrin],solubility in water,insoluble
